Measured values: US5155107A, “17β-substituted-4-aza-5α-androstan-3-one derivatives and process for their preparation” (Farmitalia Carlo Erba, priority 1990, dated 1992)
Where two headings read alike, the source gives them in different places.

Columns and labels:
[1] = molecular target: T1, 5α-reductase (particulate fraction of human benign prostatic hypertrophy tissue) (Homo sapiens, UniProt P31213); test: Inhibition of prostatic 5α-reductase in vitro; type: biochemical
T1 construct: homogenates of human benign prostatic hypertrophy tissue as the enzyme source; from tissue; host or cells: human benign prostatic hypertrophy tissue, 40,000×g particulate fraction (nuclei, microsomes, mitochondria)
T1 sequence (P31213 1-254): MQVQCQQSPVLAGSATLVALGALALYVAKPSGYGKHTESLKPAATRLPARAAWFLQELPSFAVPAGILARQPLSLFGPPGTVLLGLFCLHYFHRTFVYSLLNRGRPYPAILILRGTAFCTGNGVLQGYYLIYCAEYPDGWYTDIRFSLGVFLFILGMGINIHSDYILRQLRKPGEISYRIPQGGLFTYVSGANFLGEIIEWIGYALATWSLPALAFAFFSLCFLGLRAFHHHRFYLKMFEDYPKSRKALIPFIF
Description: For example, the inhibitory effect of the compounds of the invention on 5α-reductase was determined in vitro in comparison with progesterone taken as the reference compound, according to the procedure reported herebelow.
Inhibition of 5α-reductase was evaluated using the particulate fraction (containing nuclei, microsomes and mitochondria) from homogenates of human benign prostatic hypertrophy tissue as the enzyme source. The particulate fraction was prepared centrifuging prostate homogenate at 40,000×g. The resulting pellet, washed several times, was resuspended in buffer and stored at -80° C. in aliquots containing ≈10 mg protein/ml.
The assay for 5α-reductase was done in a final volume of 0.5 ml, containing 1 mM dithiothreitol, 40 mM TRIS-HCl buffer pH 5.0, 5 mM NADPH, 1 μM [4-^14 C]testosterone, 0.3 mg of prostate particulate fraction and various concentrations of the inhibitors. After 30 min incubation at 37° C. the reaction was terminated by addition of 1.5 ml diethyl ether and the organic phase was separated, evaporated under N2 and resuspended in ethyl acetate. Testosterone metabolites in this extract were separated in TLC on silica gel F 254 plates (Merck) using chloroform, acetone and n-hexane (2:1:2) as developing solvent system. Radioactivity on the plate was scanned and analyzed from quantitative plots printed by a TLC-analyzer (Berthold). The fractional 5α-reduction of testosterone was calculated by relating the ^14 C-radioactivity in the 5α-reduced metabolites (5α-dihydrotestosterone, 3α- and 3β-androstanediols) regions to the total radioactivity in the testosterone and 5α-reduced metabolites regions.
The concentration of each compound required to reduce control 5α-reductase by 50% (IC50) was determined by plotting % inhibition versus log of inhibitor concentration.
As an example, the potency of three representative compounds of the invention, namely 4-methyl-17β-[N-isopropyl-N-(N-isopropylcarbamoyl)carbamoyl]-4-aza-5α-androstan-3-one (Compound 1), 4-methyl-17β-[N-cyclohexyl-N-(N-cyclohexylcarbamoyl) carbamoyl-4-aza-5α-androstan-3-one (Compound 11) and 4-methyl-17β-[N-isopropyl-N-(N-isopropylthiocarbamoyl)carbamoyl-4-aza-5α-androstan-3-one (Compound 39) are reported in Table 1 in comparison with progesterone.

[2] = test system: 5α-reductase of rat prostate; test: Inhibition of prostate growth stimulated by testosterone propionate in castrated rats; type: in vivo; settings: for Inhibition of prostate growth stimulated by testosterone propionate: 7 days, testosterone propionate 0.3 mg/kg/day s.c.
Description: The compounds of the invention were also tested for their in vivo potency in inhibiting 5α-reductase of rat prostate, according to the following procedure.
Prepuberal 21-day old male rat were castrated via scrotal incision in light ether anaesthesia.
Starting on the seventh day after orchiectomy, the rats were treated with testosterone propionate (0.3 mg/kg/day subcutaneously) for 7 consecutive days to stimulate prostate growth. The 5α-reductase inhibitors were given orally at various doses once daily for 7 days, together with the standard dose of testosterone propionate.
Thus, for example, in the above test the compound 1 of the present invention was compared with the well known 5α-reductase inhibitor 4-methyl-17β-N,N-diethyl-carbamoyl-4-methyl-4-aza-5α-androstan- 3-one, identified as 4-MA and described, e.g., in U.S. Pat. No. 4,377,584) giving the results reported in the following Table 2.

[3] = molecular target: T2, cytoplasmic androgen (rat prostate) receptors (Rattus norvegicus, UniProt P15207); test: Rat prostate androgen receptor binding (inhibition of 3H-DHT binding); parameters: species or system Sprague-Dawley rats
T2 construct: Prostatic tissue, obtained from adrenalectomized and castrated Sprague-Dawley rats; from tissue; host or cells: prostate cytosol of adrenalectomized and castrated Sprague-Dawley rats
T2 sequence (P15207 1-902): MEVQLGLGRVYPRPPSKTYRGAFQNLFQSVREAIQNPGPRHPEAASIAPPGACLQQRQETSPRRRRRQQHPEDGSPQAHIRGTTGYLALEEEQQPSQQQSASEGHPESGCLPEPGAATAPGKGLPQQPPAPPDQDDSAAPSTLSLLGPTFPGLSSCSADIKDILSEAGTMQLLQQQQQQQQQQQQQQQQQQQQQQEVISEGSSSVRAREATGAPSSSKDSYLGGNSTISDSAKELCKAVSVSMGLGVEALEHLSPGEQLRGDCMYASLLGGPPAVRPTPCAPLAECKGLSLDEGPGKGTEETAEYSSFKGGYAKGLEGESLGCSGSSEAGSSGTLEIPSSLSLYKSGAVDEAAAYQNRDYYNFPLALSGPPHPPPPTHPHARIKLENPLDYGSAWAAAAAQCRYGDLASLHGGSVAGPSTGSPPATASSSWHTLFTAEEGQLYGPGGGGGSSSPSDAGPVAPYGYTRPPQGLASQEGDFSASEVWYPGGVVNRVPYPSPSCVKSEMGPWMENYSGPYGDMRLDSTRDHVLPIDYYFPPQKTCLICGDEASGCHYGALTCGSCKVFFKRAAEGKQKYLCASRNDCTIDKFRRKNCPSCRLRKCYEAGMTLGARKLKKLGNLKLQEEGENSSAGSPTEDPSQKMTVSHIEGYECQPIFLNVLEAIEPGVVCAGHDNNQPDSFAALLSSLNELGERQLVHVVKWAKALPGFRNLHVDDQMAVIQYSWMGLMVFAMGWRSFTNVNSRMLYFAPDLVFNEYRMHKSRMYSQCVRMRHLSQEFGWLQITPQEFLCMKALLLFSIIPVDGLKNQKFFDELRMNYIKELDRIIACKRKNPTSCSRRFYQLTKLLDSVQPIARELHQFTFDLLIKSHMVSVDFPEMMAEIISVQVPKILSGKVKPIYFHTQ
Description: For their use in androgen- dependent conditions, the 5α-reductase inhibitors, should have a very low intrinsic androgenic activity, which can be shown by the binding affinity to the androgen receptor.
A low binding affinity to the androgen receptor is therefore desirable in a 5α-reductase inhibitor for use in the treatment of androgen dependent conditions.
Binding affinity to cytoplasmic androgen (rat prostate) receptors was determined by standard dextran-coated absorption technique (Raynaud J. P. et al., J. Steroid. Biochem. 6: 615-622, 1975).
Prostatic tissue, obtained from adrenalectomized and castrated Sprague-Dawley rats, was homogenized in 10 mM Tris HCl pH 7.4, containing 1.5 mM EDTA and 1 mM dithiothreitol in motor driven tissue grinders. The homogenate was centrifuged at 10,000×g for 1 h at 4° C.
Aliquots of cytosol 00.2 ml) were incubated for 2 hours at 0° C. with various concentrations of the test compounds, in duplicate, and a fixed amount of ^3 H-dihydrotesterone (DHT) final concentration 1 nM in 0.4 ml of incubation volume).
Then, free radioactivity was absorbed on 0.2 ml of dextran-coated charcoal suspension and after centrifugation at 1,500×g for 10 min., the bound radioactivity in the supernatant was determined by liquid scintillation in Rialuma.
The concentration of each compound required to reduce specific ^3 H-DHT binding by 50% (IC50) was determined from a plot of bound radioactivity versus log of competitor concentration.
In the above test the Compound 1 of the present invention was compared with the same above identified reference compound 4-MA and the obtained results are reported in the following Table 3.

[4] = human BPH particulate fraction, 1 μM [4-14C]testosterone, pH 5.0, 30 min, 37° C., read-out: Inhibition of prostatic 5α-reductase IC50

Structure (SMILES): CC(C)NC(=O)N(C(=O)[C@H]1CC[C@H]2[C@@H]3CC[C@H]4N(C)C(=O)CC[C@]4(C)[C@H]3CC[C@]12C)C(C)C [Compound 1, 4-methyl-17β-[N-isopropyl-N-(N-isopropylcarbamoyl)carbamoyl]-4-aza-5α-androstan-3-one]
- IC50 [1, 4]: 55 nM
- Inhibition of prostate growth stimulated by testosterone propionate ([2]; 3 mg/kg/day p.o.): 33%
- Inhibition of prostate growth stimulated by testosterone propionate ([2]; 10 mg/kg/day p.o.): 55%
- IC50 [3]: 150000 nM
- selectivity versus androgen receptor binding ([3]; Compound 1 versus reference compound 4-MA): more selective than the reference compound 4-MA
- displacement of DHT from the prostatic androgen receptor ([3]; Table 3): displaces DHT from the prostatic androgen receptor only at a very high concentration

Structure (SMILES): CCN(CC)C(=O)[C@H]1CC[C@H]2[C@@H]3CC[C@H]4N(C)C(=O)CC[C@]4(C)[C@H]3CC[C@]12C [Compound 4-MA, 4-methyl-17β-N,N-diethyl-carbamoyl-4-methyl-4-aza-5α-androstan-3-one]
- Inhibition of prostate growth stimulated by testosterone propionate ([2]; 3 mg/kg/day p.o.): 1%
- Inhibition of prostate growth stimulated by testosterone propionate ([2]; 10 mg/kg/day p.o.): 0%
- Inhibition of prostate growth stimulated by testosterone propionate ([2]; 30 mg/kg/day p.o.): 49%
- in vivo effect on the hypertrophic response to testosterone propionate ([2]; same dose, 10 mg/kg/day oral): completely ineffective
- displaces DHT at a concentration lower than Compound 1 (fold) ([3]; 4-MA versus Compound 1): 60 times lower
- IC50 ([3]; rat prostate cytosol, 1 nM 3H-DHT, 2 hours, 0° C., read-out: Inhibition of DHT binding IC50): 2500 nM

Structure (SMILES): CN1C(=O)CC[C@]2(C)[C@H]3CC[C@]4(C)[C@@H](C(=O)N(C(=O)NC5CCCCC5)C5CCCCC5)CC[C@H]4[C@@H]3CC[C@@H]12 [Compound 11, 4-methyl-17β-[N-cyclohexyl-N-(N-cyclohexylcarbamoyl)carbamoyl]-4-aza-5α-androstan-3-one]
- IC50 [1, 4]: 41 nM

Structure (SMILES): CC(C)NC(=S)N(C(=O)[C@H]1CC[C@H]2[C@@H]3CC[C@H]4N(C)C(=O)CC[C@]4(C)[C@H]3CC[C@]12C)C(C)C [Compound 39, 4-methyl-17β-[N-isopropyl-N-(N-isopropylthiocarbamoyl)carbamoyl]-4-aza-5α-androstan-3-one]
- IC50 [1, 4]: 11 nM

Structure (SMILES): CC(=O)[C@H]1CC[C@H]2[C@@H]3CCC4=CC(=O)CC[C@]4(C)[C@H]3CC[C@]12C [Progesterone, progesterone, reference compound]
- IC50 [1]: 1980 nM
